Results: PMC2699117, “Drug Discovery Using Chemical Systems Biology: Repositioning the Safe Medicine Comtan to Treat Multi-Drug and Extensively Drug Resistant Tuberculosis” (PLoS Computational Biology, 2009)

Molecular target: T1, InhA (enoyl-acyl carrier protein reductase) (Mycobacterium tuberculosis, UniProt P9WGR1)
T1 construct: wild-type InhA
Experiment: biochemical

T1 sequence (P9WGR1 whole entry, looked up): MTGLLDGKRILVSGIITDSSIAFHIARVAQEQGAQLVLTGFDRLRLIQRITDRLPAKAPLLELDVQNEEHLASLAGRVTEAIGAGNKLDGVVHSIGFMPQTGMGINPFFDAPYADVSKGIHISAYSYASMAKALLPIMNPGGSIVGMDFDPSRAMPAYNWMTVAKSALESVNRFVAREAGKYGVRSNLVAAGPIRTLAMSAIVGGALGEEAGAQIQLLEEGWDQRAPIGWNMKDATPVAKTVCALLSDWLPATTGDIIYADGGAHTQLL

## CCN(CC)C(=O)/C(C#N)=C/c1cc(O)c(O)c([N+](=O)[O-])c1 [entacapone]
  IC50: 79 ± 10 µM
